20 compounds from patent publication US9796719B2, “Compounds and pharmaceutical compositions thereof for the treatment of inflammatory disorders” (GALAPAGOS NV, priority 2013, dated 2017) can be followed below.

What all share (type): biochemical
Assay [1] concerns the target T1, hENPP2 (UniProtKB/SwissProt Sequence ref Q13822) (Homo sapiens (Human), UniProt Q13822). Briefly: LPC hENPP2 assay (choline release, LPC as substrate). Put shortly:
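Choline released from LPC by ENPP2 is quantified after stopping with stop-developer containing 0.6 U/mL choline oxidase, 0.6 U/mL peroxidase, 1.8 mM TOOS, 1.2 mM amino-antipyrine and 20 mM EGTA. Quinoneimine dye read at 555 nm after 30 min at room temperature.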

In assay [2] the target is T1, hENPP2. Kind of assay: FS3 hENPP2 assay (fluorogenic substrate FS-3). Conditions: hENPP2, FS-3 as substrate. Put shortly:
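Compound dilutions (1/5 steps, top concentration as added 20 μM) were preincubated 30 min at room temperature with hENPP2 (0.4 or 0.64 μg/mL final) in pH 8.0 Tris buffer containing NaCl, KCl, MgCl2, CaCl2 and 0.1% fatty-acid-free BSA. FS-3 (0.75 μM as added) was then hydrolysed for 30 min at 30 °C, and fluorescence was read at 485/520 nm.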

The subject of the next assay is LPA 18:2. Kind of assay: Rat whole blood (plasma) LPA assay. As for the experimental part:
Whole blood is collected from rats or mouse by exsanguinations on sodium heparin tube, then after centrifugation at 3000 rpm for 15 min at 4° C., plasma is stored at −80° C. Compounds are diluted in DMSO in concentration dependent manner then 0.5 μL are dispensed into 96-wells plate placed in ice. Plasma is defrosted on ice then 49.5 μL of plasma are added into the well containing 0.5 μL of compound (1% DMSO final). Plates are covered with a lid in polypropylene and incubated at +37° C., 5% CO2, for 2 h under gentle shaking (except controls which are stored at −20° C.).
At the end of the incubation, controls are defrosted in ice and transferred in the incubated plates for LC-MS/MS analysis with a non GLP-validated method. For the analysis, plasma proteins from a 10 μL incubated plates are precipitated with an excess of methanol containing the internal standard, LPA 17:0. After centrifugation, the corresponding supernatant is injected on a C18 column. Analytes are eluted out of the column under isocratic conditions. An API5500 QTRAP mass spectrometer (ABSciex™) is used for the detection of LPA 18:2. No calibration curve is prepared for LPA 18:2, however relative quantities are evaluated based on the peak area.

For orientation: IC50 means the concentration that inhibits the measured activity by half. `CCc1nc2ccc(N3CCN(CC4CNC(=O)O4)CC3)nn2c1N(C)c1nc(-c2ccc(F)cc2)cs1` (stereo not drawn) [Cpd 40, 5-((4-(2-ethyl-3-((4-(4-fluorophenyl)thiazol-2-yl)(methyl)amino)imidazo[1,2-b]pyridazin-6-yl)piperazin-1-yl)methyl) oxazolidin-2-one]: the half-inhibitory concentration (IC50) was 100 to 500 nM against hENPP2 [1], 0.01 to 25 nM against hENPP2 [2] and 100 to 500 nM in the assay on LPA 18:2.

On to `CCc1nc2cnc(C3CCN(CC(=O)N4CC(O)C4)CC3)cn2c1N(C)c1nc(-c2ccc(F)cc2)c(C#N)s1` [Cpd 23, 2-((2-ethyl-6-(1-(2-(3-hydroxyazetidin-1-yl)-2-oxoethyl)piperidin-4-yl)imidazo[1,2-a]pyrazin-3-yl)(methyl)amino)-4-(4-fluorophenyl) thiazole-5-carbonitrile], for which the figures for the IC50 against hENPP2 [1], against hENPP2 [2] and in the assay on LPA 18:2 were 100 to 500 nM, 0.01 to 25 nM and 100 to 500 nM, respectively.

Consider `CCc1nc2cnc(N3CCN(CC(=O)N(C)C)CC3)cn2c1N(C)c1nc(-c2ccc(F)cc2)c(C#N)s1` [Cpd 5, 2-(4-(3-((5-cyano-4-(4-fluorophenyl)thiazol-2-yl)(methyl)amino)-2-ethylimidazo[1,2-a]pyrazin-6-yl)piperazin-1-yl)-N,N-dimethylacetamide], for which the 50% inhibitory concentration (IC50) against hENPP2 [1] was 100 to 500 nM; against hENPP2 [2], 0.01 to 25 nM; with LPA 18:2 it was greater than 1000 nM.

As for `CCc1nc2cnc(N3CCN(CC(=O)N4CC[C@H](O)C4)CC3)cn2c1N(C)c1nc(-c2ccc(F)cc2)c(C#N)s1` [Cpd 7, (S)-2-((2-ethyl-6-(4-(2-(3-hydroxypyrrolidin-1-yl)-2-oxoethyl)piperazin-1-yl)imidazo[1,2-a]pyrazin-3-yl)(methyl)amino)-4-(4-fluorophenyl) thiazole-5-carbonitrile], the IC50 against hENPP2 [1] is 100 to 500 nM; at hENPP2 [2] it was 0.01 to 25 nM; with LPA 18:2, 100 to 500 nM.

Turning to `CCc1nc2cnc(N3CCN(CC(=O)N4CC(O)C4)CC3)cn2c1N(C)c1nc(-c2ccc(F)cc2)cs1` [Cpd 14, 2-(4-(2-ethyl-3-((4-(4-fluorophenyl)thiazol-2-yl)(methyl)amino)imidazo[1,2-a]pyrazin-6-yl)piperazin-1-yl)-1-(3-hydroxyazetidin-1-yl)ethanone], the 50% inhibitory concentration (IC50) against hENPP2 [1] and with LPA 18:2 was greater than 1000 nM throughout.

Consider `CCc1nc2ccc(C3CCN(S(C)(=O)=O)CC3)nn2c1N(C)c1nc(-c2ccc(F)cc2C#N)cs1` [Cpd 205, 2-(2-((2-ethyl-6-(1-(methylsulfonyl)piperidin-4-yl)imidazo[1,2-b]pyridazin-3-yl)(methyl)amino)thiazol-4-yl)-5-fluorobenzonitrile], for which the half-inhibitory concentration (IC50) against hENPP2 [1] and in the assay on LPA 18:2 was 100 to 500 nM in each case.

In the case of `CCc1nc2cnc(N3CCN(CC(=O)N4CC[C@@H](O)C4)CC3)cn2c1N(C)c1nc(-c2ccc(F)cc2)c(C#N)s1` [Cpd 6, (R)-2-((2-ethyl-6-(4-(2-(3-hydroxypyrrolidin-1-yl)-2-oxoethyl)piperazin-1-yl)imidazo[1,2-a]pyrazin-3-yl)(methyl)amino)-4-(4-fluorophenyl) thiazole-5-carbonitrile], the figures for the IC50 on hENPP2 [1], against hENPP2 [2] and in the assay on LPA 18:2 were 100 to 500 nM, 0.01 to 25 nM and 100 to 500 nM, respectively.

As to `CCc1nc2ccc(N3CCC(N4CCOCC4)C3)nn2c1N(C)c1nc(-c2ccc(F)cc2)c(C#N)s1` (stereo not drawn) [Cpd 149, 2-((2-ethyl-6-(3-morpholino-pvrrolidin-1-yl)imidazo[1,2-b]pyridazin-3-yl)(methyl)amino)-4-(4-fluorophenyl) thiazole-5-carbonitrile], the IC50 against hENPP2 [1] and with LPA 18:2 was 0.01 to 100 nM in each case.

On to `CN(c1nc(-c2ccc(F)cc2)cs1)c1c(CCC#N)nc2ccc(C3CCN(S(C)(=O)=O)CC3)nn12` [Compound 198, 3-(3-((4-(4-fluorophenyl)thiazol-2-yl)(methyl)amino)-6-(1-(methylsulfonyl)piperidin-4-yl)imidazo[1,2-b]pyridazin-2-yl)propanenitrile], for which the IC50 against hENPP2 [1] is 100 to 500 nM; on hENPP2 [2], 0.01 to 25 nM; in the assay on LPA 18:2, 0.01 to 100 nM.

Consider `CCc1nc2cnc(N3CCN(CC(=O)N4CC(O)C4)CC3)cn2c1N(C)c1ncc(C#N)c(-c2ccc(F)cc2)n1` [Cpd 19, 2-((2-ethyl-6-(4-(2-(3-hydroxyazetidin-1-yl)-2-oxoethyl)piperazin-1-yl)imidazo[1,2-a]pyrazin-3-yl)(methyl)amino)-4-(4-fluorophenyl) pyrimidine-5-carbonitrile], for which the IC50 against hENPP2 [1] is greater than 1000 nM; against hENPP2 [2] it was greater than 100 nM; in the assay on LPA 18:2, greater than 1000 nM.

`CCc1nc2ccc(C3CCN(CC(=O)N4CC(O)C4)CC3)nn2c1N(C)c1cccc(-c2ccc(F)cc2C#N)n1` [Cpd 213, 2-(6-((2-ethyl-6-(1-(2-(3-hydroxyazetidin-1-yl)-2-oxoethyl)piperidin-4-yl)imidazo[1,2-b]pyridazin-3-yl)(methyl)amino)pyridin-2-yl)-5-fluorobenzonitrile]: the IC50 at hENPP2 [1] was in the range of 0.01 to 100 nM; against hENPP2 [2], 0.01 to 25 nM; in the assay on LPA 18:2 it was 100 to 500 nM.

In the case of `CCc1nc2cnc(N3CCN(CC(=O)N4CCOCC4)CC3)cn2c1N(C)c1nc(-c2ccc(F)cc2)c(C#N)s1` [Cpd 10, 2-((2-ethyl-6-(4-(2-morpholino-2-oxoethyl)piperazin-1-yl)imidazo[l,2-a]pyrazin-3-yl)(methyl)amino)-4-(4-fluorophenyl) thiazole-5-carbonitrile], the IC50 against hENPP2 [1] was 100 to 500 nM; against hENPP2 [2], 0.01 to 25 nM; with LPA 18:2, greater than 1000 nM.

In the case of `CCc1nc2cnc(C3CCN(CC(=O)N4CC[C@@H](O)C4)CC3)cn2c1N(C)c1nc(-c2ccc(F)cc2)c(C#N)s1` [Cpd 24, (R)-2-((2-ethyl-6-(1-(2-(3-hydroxypyrrolidin-1-yl)-2-oxoethyl)piperidin-4-yl)imidazo[1,2-a]pyrazin-3-yl)(methyl)amino)-4-(4-fluorophenyl) thiazole-5-carbonitrile], the IC50 at hENPP2 [1] lay in the range of 100 to 500 nM; against hENPP2 [2], 0.01 to 25 nM; in the assay on LPA 18:2 it was 0.01 to 100 nM.

`CCc1nc2ccc(C3CCN(S(C)(=O)=O)CC3)nn2c1N(C)c1nc(-c2ccc(F)cc2C#N)c(CO)s1` [Cpd 206, 2-(2-((2-ethyl-6-(1-(methylsulfonyl)piperidin-4-yl)imidazo[1,2-b]pyridazin-3-yl)(methyl)amino)-5-(hydroxymethyl)thiazol-4-yl)-5-fluorobenzonitrile]: the figures for the IC50 against hENPP2 [1] and in the assay on LPA 18:2 were 500 to 1000 nM and 100 to 500 nM, respectively.

In the case of `CCc1nc2cnc(C3CCN(CC(=O)N4CC[C@H](O)C4)CC3)cn2c1N(C)c1nc(-c2ccc(F)cc2)c(C#N)s1` [Cpd 25, (S)-2-((2-ethyl-6-(1-(2-(3-hydroxypyrrolidin-1-yl)-2-oxoethyl)piperidin-4-yl)imidazo[1,2-a]pyrazin-3-yl)(methyl)amino)-4-(4-fluorophenyl) thiazole-5-carbonitrile], the IC50 was 100 to 500 nM at hENPP2 [1], 0.01 to 25 nM at hENPP2 [2] and 0.01 to 100 nM in the assay on LPA 18:2.

In the case of `CCc1nc2ccc(N3CCC4(CNC(=O)O4)C3)nn2c1N(C)c1nc(-c2ccc(F)cc2)cs1` (stereo not drawn) [Cpd 118, 7-(2-ethyl-3-((4-(4-fluorophenyl)thiazol-2-yl)(methyl)amino)imidazo[1,2-b]pyridazin-6-yl)-1-oxa-3,7-diazaspiro[4.4] nonan-2-one], the IC50 against hENPP2 [1] was 500 to 1000 nM; with LPA 18:2 it was greater than 1000 nM.

Consider `CCc1nc2ccc(N3CCC(=O)C3)nn2c1N(C)c1nc(-c2ccc(F)cc2)c(C#N)s1` [Compound 172, 2-((2-ethyl-6-(3-oxopyrrolidin-1-yl)imidazo[1,2-b]pyridazin-3-yl)(methyl)amino)-4-(4-fluorophenyl)thiazole-5-carbonitrile], for which the concentration for half-maximal inhibition (IC50) is 100 to 500 nM against hENPP2 [1] and 0.01 to 25 nM against hENPP2 [2].

As for `CCc1nc2ccc(N3CCN4C(=O)OC[C@@H]4C3)nn2c1N(C)c1nc(-c2ccc(F)cc2)cs1` [Compound 61, (S)-7-(2-ethyl-3-((4-(4-fluorophenyl)thiazol-2-yl)(methyl)amino)imidazo[1,2-b]pyridazin-6-yl)tetrahydro-1H-oxazolo[3,4-a]pyrazin-3 (5H)-one], the figures for the IC50 against hENPP2 [1] and at hENPP2 [2] were greater than 1000 nM and 0.01 to 25 nM, respectively.

As to `CCOC(=O)C1CCN(c2ccc3nc(CC)c(N(C)c4nc(-c5ccc(F)cc5)cs4)n3n2)CC1` [Compound 95, ethyl 1-(2-ethyl-3-((4-(4-fluorophenyl)thiazol-2-yl)(methyl)amino)imidazo[1,2-b]pyridazin-6-yl)piperidine-4-carboxylate], the half-maximal inhibitory concentration (IC50) at hENPP2 [1] is greater than 1000 nM; against hENPP2 [2], 0.01 to 25 nM.

Turning to `CCc1nc2cnc(N3CCN(CC(=O)NC)CC3)cn2c1N(C)c1nc(-c2ccc(F)cc2)c(C#N)s1` [Cpd 9, 2-(4-(3-((5-cyano-4-(4-fluorophenyl)thiazol-2-yl)(methyl)amino)-2-ethylimidazo[1,2-a]pyrazin-6-yl)piperazin-1-yl)-N-methylacetamide], the IC50 against hENPP2 [1] was 500 to 1000 nM; at hENPP2 [2], 0.01 to 25 nM.
